Source: patent publication US20130217085A1, “METHODS FOR IMPROVING FERMENTATION YIELD OF POLYUNSATURATED FATTY ACIDS” (NANJING UNIVERSITY OF TECHNOLOGY, priority 2010, published 2013)

Test system: Schizochytrium limacinum HX-308
Test: Shake-flask fermentation of Schizochytrium limacinum HX-308 with exogenous compatible solute added to the fermentation medium (fatty acid composition, DHA yield, biomass)
Assay type: cell-based
Source text: The detection method of the following Examples is the same as that in the application titled “Schizochytrium limacinum and method of production of DHA oil using the same” (Application No. 200910033869.5) The strain is Schizochytrium limacinum HX-308 with deposit number CCTCC No. M209059. Seed medium: D-glucose 40 g/L, yeast extract 2 g/L, sodium glutamate 10 g/L, MgCl2 3 g/L, CaCl2·2H2O 1 g/L, KH2PO4 4 g/L, KCl 2 g/L, NaCl 15 g/L, MgSO4·7H2O 5 g/L, FeCl3 0.1 g/L. (See “A Schizochytrium limacinum and method of production of DHA oil using the same” (Application No. 200910033869.5)). Fermentation medium: D-glucose 40 g/L, yeast extract 2 g/L, sodium glutamate 10 g/L, MgCl2 3 g/L, (NH4)2SO4 6 g/L, KH2PO4 4 g/L, KCl 2 g/L, NaCl 15 g/L, MgSO4·7H2O 5 g/L, FeCl3 0.1 g/L. (See “A Schizochytrium limacinum and method of production of DHA oil using the same” (Application No. 200910033869.5)). Cultural method: strain was inoculated into seed medium with inoculation amount of 5% (v/v), cultured in a 500 mL shake flask for 24 h to log phase under 170 r at 25° C., and inoculated into the fermentation medium with addition of a certain amount of glycine betaine (such as 10 mmol/L, 40 mmol/L, 70 mmol/L, 100 mmol/L) in inoculation amount of 9% (v/v) for culturing; fermentation ceased when glucose reached an amount of 0 g/L. The results are shown in Table 1. The strain is Schizochytrium limacinum HX-308 with deposit number CCTCC No. M209059. Seed medium: D-glucose 40 g/L, yeast extract 2 g/L, sodium glutamate 10 g/L, MgCl2 3 g/L, CaCl2·2H2O 1 g/L, KH2PO4 4 g/L, KCl 2 g/L, NaCl 15 g/L, MgSO4·7H2O 5 g/L, FeCl3 0.1 g/L. Fermentation medium: D-glucose 40 g/L, yeast extract 2 g/L, sodium glutamate 10 g/L, MgCl2 3 g/L, (NH4)2SO4 6 g/L, KH2PO4 4 g/L, KCl 2 g/L, NaCl 15 g/L, MgSO4·7H2O 5 g/L, FeCl3 0.1 g/L. Cultural method: the strain was inoculated into seed medium with inoculation amount of 5% (v/v), cultured in a 500 mL shake flask for 24 h to log phase under 170 r at 25° C., and inoculated into the fermentation medium with addition of a certain amount of trehalose (such as 10 mmol/L, 40 mmol/L, 80 mmol/L) in inoculation amount of 9% (v/v); fermentation ceased when glucose reached an amount of 0 g/L. The results are shown in Table 2.

## OC[C@H]1O[C@H](O[C@H]2O[C@H](CO)[C@@H](O)[C@H](O)[C@H]2O)[C@H](O)[C@@H](O)[C@@H]1O [trehalose]
Appropriate amount of trehalose, versus no addition
  increase of DHA yield: 92%
Appropriate amount of trehalose, increased from 3.9 g/L
  DHA yield: 7.5 g/L
Appropriate amount of trehalose, increased from 8.8 g/L
  yield of total fatty acids: 16.7 g/L
Appropriate amount of trehalose, increased from 57
  ratio of DHA in total biomass: 99 mg/g
Appropriate amount of trehalose, increased from 60 g/L
  Biomass: 76 g/L
Exogenous trehalose 10 mM
  ARA (% total fatty acids): 0.6 % total fatty acids
  Biomass: 70 g/L
  C14:0 (% total fatty acids): 9.5 % total fatty acids
  C16:0 (% total fatty acids): 22.3 % total fatty acids
  DHA (% total fatty acids): 44.8 % total fatty acids
  DHA (mg/g biomass): 57.1 mg/g biomass
  DHA yield: 4 g/L
  DPA (% total fatty acids): 12.3 % total fatty acids
  EPA (% total fatty acids): 1.6 % total fatty acids
  Others (% total fatty acids): 8.1 % total fatty acids
  Squalene (% total fatty acids): 0.8 % total fatty acids
  Total fatty acid yield: 8.9 g/L
Exogenous trehalose 40 mM
  ARA (% total fatty acids): 1.9 % total fatty acids
  Biomass: 74 g/L
  C14:0 (% total fatty acids): 9.6 % total fatty acids
  C16:0 (% total fatty acids): 21.3 % total fatty acids
  DHA (% total fatty acids): 47.4 % total fatty acids
  DHA (mg/g biomass): 56.6 mg/g biomass
  DHA yield: 4.2 g/L
  DPA (% total fatty acids): 12.6 % total fatty acids
  EPA (% total fatty acids): 1.8 % total fatty acids
  Others (% total fatty acids): 4.5 % total fatty acids
  Squalene (% total fatty acids): 0.9 % total fatty acids
  Total fatty acid yield: 8.9 g/L
Exogenous trehalose 80 mM
  ARA (% total fatty acids): 1.2 % total fatty acids
  Biomass: 76 g/L
  C14:0 (% total fatty acids): 10.7 % total fatty acids
  C16:0 (% total fatty acids): 23.2 % total fatty acids
  DHA (% total fatty acids): 45 % total fatty acids
  DHA (mg/g biomass): 99.3 mg/g biomass
  DHA yield: 7.5 g/L
  DPA (% total fatty acids): 12.2 % total fatty acids
  EPA (% total fatty acids): 1.3 % total fatty acids
  Others (% total fatty acids): 5.5 % total fatty acids
  Squalene (% total fatty acids): 0.9 % total fatty acids
  Total fatty acid yield: 16.7 g/L
Exogenous trehalose 160 mM
  ARA (% total fatty acids): 1.0 % total fatty acids
  Biomass: 78 g/L
  C14:0 (% total fatty acids): 11.0 % total fatty acids
  C16:0 (% total fatty acids): 22.5 % total fatty acids
  DHA (% total fatty acids): 43.2 % total fatty acids
  DHA (mg/g biomass): 89.7 mg/g biomass
  DHA yield: 7 g/L
  DPA (% total fatty acids): 12.1 % total fatty acids
  EPA (% total fatty acids): 1.4 % total fatty acids
  Others (% total fatty acids): 8.3 % total fatty acids
  Squalene (% total fatty acids): 0.5 % total fatty acids
  Total fatty acid yield: 16.2 g/L
Exogenous trehalose 200 mM
  Biomass: 81 g/L
  C14:0 (% total fatty acids): 11.7 % total fatty acids
  C16:0 (% total fatty acids): 21.5 % total fatty acids
  DHA (% total fatty acids): 41.7 % total fatty acids
  DHA (mg/g biomass): 78 mg/g biomass
  DHA yield: 6.3 g/L
  DPA (% total fatty acids): 11.5 % total fatty acids
  EPA (% total fatty acids): 1.4 % total fatty acids
  Others (% total fatty acids): 12.2 % total fatty acids
  Total fatty acid yield: 15.1 g/L
Exogenous trehalose 280 mM
  ARA (% total fatty acids): 1.0 % total fatty acids
  Biomass: 76 g/L
  C14:0 (% total fatty acids): 11.1 % total fatty acids
  C16:0 (% total fatty acids): 22.7 % total fatty acids
  DHA (% total fatty acids): 39.1 % total fatty acids
  DHA (mg/g biomass): 29 mg/g biomass
  DHA yield: 2.2 g/L
  DPA (% total fatty acids): 10.8 % total fatty acids
  EPA (% total fatty acids): 7.7 % total fatty acids
  Others (% total fatty acids): 7.6 % total fatty acids
  Total fatty acid yield: 5.6 g/L
